# Measured values as given in patent EP4600367A1, “ENZYMATIC CLEAVAGE OF N-ALKYL COMPOUNDS AFTER CHEMOLYSIS OF POLYURETHANES” (Covestro Deutschland AG, priority 2024, dated 2025).
# Tests used:
# ChaoA L225A = test: Enzymatic N-dealkylation assay MAOs/CAOs, HPLC product release; type: biochemical, Brevibacterium oxydans strain IH-35A; settings: for enzymatischer Abbau von Modell-N-Alkylverbindungen: ChaoA L225A: 10 mM substrate, phosphate buffer pH 7,5, 37 °C, at least 48 h; for Aktivität / Freisetzung des Zielprodukts: ChaoA L225A
# Description: (§1) Die Expression der in Tabelle 1 gezeigten MAOs und CAOs erfolgte im Stamm E. coli BL21(DE3). Der Zellaufschluss erfolgte durch Ultraschallbehandlung und die Enzymreinigung über einen N-terminalen His-tag und das IMAC-System (Nickel-NTA) nach Angaben des Herstellers (Fisher Scientific GmbH) mit anschließender Umpufferung in einen Lagerpuffer (25 mM Tris/HCl pH 7.8, 1 mM dithiothreitol (DTT), 1 mM PMSF, 300 mM NaCl) über PD-10-Säulen nach Angaben des Herstellers (cytiva). Die erfolgreiche Expression und Aufreinigung wurde über ein SDS-PAGE kontrolliert. Tabelle 1: Untersuchte Enzyme im Rahmen der enzymatischen N-Dealkylierung.
# (§2) Für MAOs/CAOs erfolgte die Reaktion im 200 µL Maßstab bei 37 °C für mindestens 48 h und 200 rpm. Dazu wurden 100 µL der oben beschriebenen Enzympräparate in Phosphatpuffer (bevorzugt zwischen 50 bis 200 mM, pH 7,5) mit 10 mM eines der sechs in Tabelle 2 gelisteten Substrate versetzt. Als Co-Solvenz für das Substrat wurde Dimethylsulfoxid eingesetzt (maximal 5 % (w/w) der finalen Umsetzungsreaktion). Um eine ausreichende Sauerstoffversorgung über den Kopfraum des Reaktionsansatzes zu gewährleisten, wurden Reaktionsgefäße oder Mikrotiterplatten in eckiger Ausführungsform und 10-fachem Gesamtvolumen bevorzugt.
# (§3) Als Negativkontrollen wurden für alle Substrate und Bedingungen Assays ohne Enzymlösung durchgeführt. Alle Assays erfolgten mindestens in Triplikaten.
# (§4) Zum Abstoppen der enzymatischen Reaktion und Extraktion erfolgte die Verdünnung des Reaktionsansatzes in gleichen Teilen Acetonitril. Die Proben wurden filtriert und die Produktfreisetzung per HPLC analysiert (ZORBAX Eclipse C18 Säule (Partikelgröße von […], 4,6 × 75 mm (Agilent Technologies, Santa Clara, USA), 40 °C, Laufmittel A: Acetonitril mit 5 % Reinstwasser, Laufmittel B: 10 mM Natriumphosphat-Puffer pH 7,0 mit 5 % ACN, Fluss: 1 mL/min). Das Profil der HPLC-Methode ist in Tabelle 3 gezeigt. Tabelle 4 zeigt die Elutionszeiten der Komponenten mit dieser Messmethode. Tabelle 3: Profil der HPLC-Methode.
# ChaO YT02 = test: as above; type: biochemical, Acinetobacter sp. YT-02; settings: for enzymatischer Abbau von Modell-N-Alkylverbindungen: ChaO YT02: 10 mM substrate, phosphate buffer pH 7,5, 37 °C, at least 48 h
# Description: as §1, §2, §3, §4
# UPO #13M5 = test: Enzymatic N-dealkylation assay UPOs with H2O2, HPLC; type: biochemical; settings: for enzymatischer Abbau von Modell-N-Alkylverbindungen: UPO #13M5: 4 mM substrate, Tricine buffer 100 mM, 30 °C, at least 4 h, H2O2 added every 30 min
# Description: (§5) Die vier Enzyme UPO #13, UPO #13M1, UPO #13M3 und UPO #13M5 wurden von Aminoverse B.V. bereitgestellt. Zusätzlich wurde das Wildtyp AaeUPO aus der Basidiomycete Agrocybe aegerita (Ullrich, R., et al. (2004). "Novel haloperoxidase from the agaric basidiomycete Agrocybe aegerita oxidizes aryl alcohols and aldehydes." Appl Environ Microbiol 70(8): 4575-4581) von Aminoverse B.V. erworben.
# (§6) Für UPOs erfolgte die Reaktion im 300 µL Maßstab in Tricine Puffer (100 mM) bei 30 °C für mindestens 4 h und 200 rpm. Dazu wurden die von Aminoverse B.V. bereitgestellten Enzympräparate in dH2O gelöst (ca. 0,575 mg/mL) und 30 µL der Enzymlösung in den Assay eingesetzt, welcher mit 4 mM eines der sechs in Tabelle 2 gelisteten Substrate versetzt war. Der Assay wurde mit Zugabe des Co-Substrats H2O2 (1,5 µL einer 200 mM H2O2-Lösung) gestartet, welches alle 30 min wiederholt zugegeben wurde (final 12 µL H2O2).
# as §3, §4
# UPO #13M1 = test: as above; type: biochemical; settings: for enzymatischer Abbau von Modell-N-Alkylverbindungen: UPO #13M1: 4 mM substrate, Tricine buffer 100 mM, 30 °C, at least 4 h, H2O2 added every 30 min
# Description: as §5, §6, §3, §4
# UPO #13M3 = test: as above; type: biochemical; settings: for enzymatischer Abbau von Modell-N-Alkylverbindungen: UPO #13M3: 4 mM substrate, Tricine buffer 100 mM, 30 °C, at least 4 h, H2O2 added every 30 min
# Description: as §5, §6, §3, §4
# UPO #13 = test: as above; type: biochemical; settings: for enzymatischer Abbau von Modell-N-Alkylverbindungen: UPO #13: 4 mM substrate, Tricine buffer 100 mM, 30 °C, at least 4 h, H2O2 added every 30 min
# Description: as §5, §6, §3, §4
# MaoN = target: T1, MaoN (Aspergillus niger, UniProt P46882); test: Enzymatic N-dealkylation assay MAOs/CAOs, HPLC product release; type: biochemical; settings: 10 mM substrate, phosphate buffer pH 7,5, 37 °C, at least 48 h
# T1 construct: His-tag (N); made in house; host or cells: Escherichia coli BL21(DE3) pET21a
# T1 sequence (P46882 whole entry): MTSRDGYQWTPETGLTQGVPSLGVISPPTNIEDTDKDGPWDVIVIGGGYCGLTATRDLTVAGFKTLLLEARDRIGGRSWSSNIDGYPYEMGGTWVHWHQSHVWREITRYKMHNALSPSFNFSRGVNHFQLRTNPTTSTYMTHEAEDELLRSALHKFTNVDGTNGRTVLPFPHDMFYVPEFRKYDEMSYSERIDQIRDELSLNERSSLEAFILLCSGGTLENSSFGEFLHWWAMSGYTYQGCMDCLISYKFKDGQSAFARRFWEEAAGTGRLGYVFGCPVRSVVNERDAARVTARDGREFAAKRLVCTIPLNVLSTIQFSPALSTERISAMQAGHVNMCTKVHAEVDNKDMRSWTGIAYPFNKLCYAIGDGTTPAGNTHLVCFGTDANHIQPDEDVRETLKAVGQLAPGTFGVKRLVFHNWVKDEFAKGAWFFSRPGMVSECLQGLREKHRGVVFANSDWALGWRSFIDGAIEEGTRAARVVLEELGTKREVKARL
# Description: as §1, §2, §3, §4
# MaoN5 = target: T2, MaoN5 (Aspergillus niger, UniProt P46882, D385S/I246M/N336S/T384N); test: as above; type: biochemical; settings: for enzymatischer Abbau von Modell-N-Alkylverbindungen: MaoN5: 10 mM substrate, phosphate buffer pH 7,5, 37 °C, at least 48 h; for Aktivität / Freisetzung des Zielprodukts: MaoN5
# T2 construct: His-tag (N); made in house; host or cells: Escherichia coli BL21(DE3) pET21a
# T2 sequence (P46882 whole entry I246M/N336S/T384N/D385S): as the sequence (P46882 whole entry) above, with I246M, N336S, T384N, D385S counted along it
# Description: as §1, §2, §3, §4
# AaeUPO = target: T3, AaeUPO (Cyclocybe aegerita, UniProt B9W4V6); test: Enzymatic N-dealkylation assay UPOs with H2O2, HPLC; type: biochemical, Agrocybe aegerita; settings: for enzymatischer Abbau von Modell-N-Alkylverbindungen: AaeUPO: 4 mM substrate, Tricine buffer 100 mM, 30 °C, at least 4 h, H2O2 added every 30 min
# T3 construct: purchased Aminoverse B.V
# T3 sequence (B9W4V6 44-371): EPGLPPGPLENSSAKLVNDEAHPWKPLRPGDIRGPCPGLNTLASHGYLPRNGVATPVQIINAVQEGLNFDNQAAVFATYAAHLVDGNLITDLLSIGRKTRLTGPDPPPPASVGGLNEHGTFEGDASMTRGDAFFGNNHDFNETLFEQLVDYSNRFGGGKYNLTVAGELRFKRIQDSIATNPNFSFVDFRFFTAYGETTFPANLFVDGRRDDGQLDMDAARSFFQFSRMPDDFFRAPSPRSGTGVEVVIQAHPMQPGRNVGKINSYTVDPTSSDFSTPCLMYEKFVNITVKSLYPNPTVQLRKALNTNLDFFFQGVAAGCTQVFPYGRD
# Description: Die vier Enzyme UPO #13, UPO #13M1, UPO #13M3 und UPO #13M5 wurden von Aminoverse B.V. bereitgestellt.
# Für UPOs erfolgte die Reaktion im 300 µL Maßstab in Tricine Puffer (100 mM) bei 30 °C für mindestens 4 h und 200 rpm. […] Der Assay wurde mit Zugabe des Co-Substrats H2O2 (1,5 µL einer 200 mM H2O2-Lösung) gestartet, welches alle 30 min wiederholt zugegeben wurde (final 12 µL H2O2).
# as §3, §4
# MAOs/CAOs = test: Enzymatic N-dealkylation assay, statement for the MAOs/CAOs as a group; type: biochemical
# Description: as §1, §2, §3, §4
# [1] = UPO #13M5, mol% relative to substrate used
# [2] = UPO #13M1, mol% relative to substrate used
# [3] = UPO #13M3, mol% relative to substrate used
# [4] = UPO #13, mol% relative to substrate used
# [5] = AaeUPO, mol% relative to substrate used
SMILES,enzymatischer Abbau von Modell-N-Alkylverbindungen: ChaoA L225A (ChaoA L225A),Aktivität / Freisetzung des Zielprodukts (ChaoA L225A),enzymatischer Abbau von Modell-N-Alkylverbindungen: ChaO YT02 (ChaO YT02),enzymatischer Abbau von Modell-N-Alkylverbindungen: UPO #13M5 (UPO #13M5),"4,4'-MDA-Freisetzung (UPO #13M5; [1])",enzymatischer Abbau von Modell-N-Alkylverbindungen: UPO #13M1 (UPO #13M1),"4,4'-MDA-Freisetzung (UPO #13M1; [2])",enzymatischer Abbau von Modell-N-Alkylverbindungen: UPO #13M3 (UPO #13M3),"4,4'-MDA-Freisetzung (UPO #13M3; [3])",enzymatischer Abbau von Modell-N-Alkylverbindungen: UPO #13 (UPO #13),"4,4'-MDA-Freisetzung (UPO #13; [4])",enzymatischer Abbau von Modell-N-Alkylverbindungen: MaoN (MaoN),enzymatischer Abbau von Modell-N-Alkylverbindungen: MaoN5 (MaoN5),Aktivität / Freisetzung des Zielprodukts (MaoN5),enzymatischer Abbau von Modell-N-Alkylverbindungen: AaeUPO (AaeUPO),"4,4'-MDA-Freisetzung (AaeUPO; [5])",Aktivität (MAOs/CAOs),further results
"CCNc1ccc(Cc2ccc(NCC)cc2)cc1 [N,N'-Diethyl-4,4'-MDA]",schwach,"nur sehr schwache 4,4'-MDA-Freisetzung",nein,ja/deg^1,"2,8 mol%",ja/deg^1,"2,5 mol%",ja/deg^1,"2,9 mol%",ja/deg^1,"2,6 mol%",nein,schwach,"nur sehr schwache 4,4'-MDA-Freisetzung",nein,0 mol%,–,–
"CNc1ccc(Cc2ccc(NC)cc2)cc1 [N,N'-Dimethyl-4,4'-MDA]",schwach,geringerer Aktivität,nein,–,"2,2 mol%",–,"2,5 mol%",–,"2,8 mol%",–,"2,1 mol%",nein,schwach,geringerer Aktivität,–,"0,7 mol%",–,"Abbau des eingesetzten Substrates (UPO #13M5; UPO #13M5, substrate no longer detected in HPLC chromatograms): vollständig abgebaut; Abbau des eingesetzten Substrates (UPO #13M3; UPO #13M3, substrate no longer detected in HPLC chromatograms): vollständig abgebaut; Abbau des eingesetzten Substrates (UPO #13; UPO #13, substrate no longer detected in HPLC chromatograms): vollständig abgebaut"
"CN(C)c1ccc(Cc2ccc(N(C)C)cc2)cc1 [N,N,N',N'-Tetramethyl-4,4'-MDA, N,N,N',N'-Tetramethyl-4,4'-diaminodiphenylmethan]",nein,–,nein,–,"1,3 mol%",–,"1,1 mol%",–,"1,4 mol%",–,"1,1 mol%",nein,nein,–,nein,"0,1 mol%",keine reproduzierbare Aktivität,"N,N'-Dimethyl-4,4'-MDA - Zwischenprodukt der enzymatischen Reaktion - nachgewiesen (UPO #13M5; [1]): 27,9 mol%; N,N'-Dimethyl-4,4'-MDA - Zwischenprodukt der enzymatischen Reaktion - nachgewiesen (UPO #13M1; [2]): 31,8 mol%; N,N'-Dimethyl-4,4'-MDA - Zwischenprodukt der enzymatischen Reaktion - nachgewiesen (UPO #13M3; [3]): 27,5 mol%; N,N'-Dimethyl-4,4'-MDA - Zwischenprodukt der enzymatischen Reaktion - nachgewiesen (UPO #13; [4]): 25,7 mol%; N,N'-Dimethyl-4,4'-MDA - Zwischenprodukt der enzymatischen Reaktion - nachgewiesen (AaeUPO; [5]): 0 mol%"
c1ccc(CNc2ccccc2)cc1 [N-Benzylanilin],schwach,spezifische Aktivität,schwach,deg,–,deg,–,deg,–,deg,–,nein,nein,–,deg,–,–,Aktivität / Freisetzung des Zielprodukts (ChaO YT02; ChaO YT02): spezifische Aktivität
CCN(C)c1ccccc1 [N-Ethyl-N-Methylanilin],nein,–,nein,nein,–,–,–,–,–,–,–,nein,nein,–,nein,–,keine Aktivität,Anilin als Zielprodukt (UPO #13M1; UPO #13M1): nachgewiesen; Anilin als Zielprodukt (UPO #13M3; UPO #13M3): nachgewiesen; Anilin als Zielprodukt (UPO #13; UPO #13): nachgewiesen
CCNc1ccccc1 [N-Ethylanilin],–,–,schwach,deg,–,deg,–,deg,–,deg,–,–,schwach,–,deg,–,spezifische Aktivität,–
